Like-named read-outs stand apart in the source and are kept apart here.
What was measured:
human TLR7 = target: T1, human TLR7 (Homo sapiens, UniProt Q9NYK1); assay: HEK-Blue hTLR7 SEAP reporter assay; format: cell-based; settings: for TLR7 activity rel. to assay max: average maximal SEAP secretion relative to maximum secretion observed in the assay
T1 construct: host or cells: HEK blue hTLR7 reporter cells
T1 sequence (Q9NYK1 27-1049): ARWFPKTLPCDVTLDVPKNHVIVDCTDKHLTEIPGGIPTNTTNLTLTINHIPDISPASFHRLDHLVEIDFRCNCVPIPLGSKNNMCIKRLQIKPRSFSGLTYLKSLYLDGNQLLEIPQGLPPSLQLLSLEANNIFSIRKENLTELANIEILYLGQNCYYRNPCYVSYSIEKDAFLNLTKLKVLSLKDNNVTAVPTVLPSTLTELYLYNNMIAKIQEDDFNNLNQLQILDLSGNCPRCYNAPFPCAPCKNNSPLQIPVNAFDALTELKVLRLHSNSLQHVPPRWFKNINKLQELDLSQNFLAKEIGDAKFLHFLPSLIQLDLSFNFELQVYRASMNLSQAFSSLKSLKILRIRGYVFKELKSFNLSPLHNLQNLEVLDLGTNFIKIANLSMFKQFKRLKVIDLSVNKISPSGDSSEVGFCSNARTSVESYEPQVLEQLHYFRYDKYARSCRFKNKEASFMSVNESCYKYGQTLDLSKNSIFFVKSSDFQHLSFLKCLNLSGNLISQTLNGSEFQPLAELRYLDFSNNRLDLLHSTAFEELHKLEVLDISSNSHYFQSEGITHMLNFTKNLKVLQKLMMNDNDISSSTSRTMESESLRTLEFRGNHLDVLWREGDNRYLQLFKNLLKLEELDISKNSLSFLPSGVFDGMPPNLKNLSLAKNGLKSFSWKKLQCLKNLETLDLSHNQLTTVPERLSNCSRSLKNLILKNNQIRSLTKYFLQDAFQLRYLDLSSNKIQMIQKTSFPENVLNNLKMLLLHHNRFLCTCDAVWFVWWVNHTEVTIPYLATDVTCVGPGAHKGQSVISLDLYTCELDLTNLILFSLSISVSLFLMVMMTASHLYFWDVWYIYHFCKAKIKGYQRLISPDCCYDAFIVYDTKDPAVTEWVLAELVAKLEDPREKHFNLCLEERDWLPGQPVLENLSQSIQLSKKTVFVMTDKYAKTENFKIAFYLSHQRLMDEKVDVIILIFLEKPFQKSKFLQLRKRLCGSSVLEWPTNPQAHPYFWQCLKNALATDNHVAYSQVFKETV
Description: HEK blue hTLR7 or hTLR8 reporter cells (Invivogen) were cultivated in DMEM High Glucose (Biowest) according to the manufacturer’s instructions. Cells were treated with test compounds and controls at various concentrations in serum-free DMEM and incubated at 37°C, 5% CO2 for 24 h before supernatants were collected.
Relative secreted embryonic alkaline phosphatase (SEAP) activity in the supernatants was determined by quantification of para-Nitrophenyl Phosphate (pNPP)-turnover. Supernatants were diluted 10-fold in a solution containing 1 mM MgCl2, 1 M diethanolamine and 1 mg/mL pNPP and incubated at RT for 15 min before the reaction was stopped by the addition of 0.25 volumes of 1 M NaOH. Absorbance was measured at 405 nm on a Versamax microplate reader (Molecular Devices) and normalized to the mean of >5 solvent controls.
To obtain reliable estimates, replicate measurements of a minimum of 2 experiments were normalized to the maximal SEAP activity of a compound in a given experiment and pooled before fitting a non-linear function to the data.

[1] = Compound concentrations in organs and blood after 3, 6, 12 µmol/kg s.c. (Figure 4A); format: in vivo, C57BL/6 mice; settings: female, C57BL/6, mouse, sc; for concentration at 8 h: 8 h after treatment; for concentration at 1 h: whole blood (peripheral, tail), 1 h post application, whole blood
Description: All samples were extracted with 3 or 6 volumes acetonitrile containing terbuthylazine as an internal standard (ACN) relative to either sample weight or volume. Liquid samples (plasma, culture medium, cell suspensions in stability experiments) were diluted in either 3 (culture medium, cell suspensions) or 6 (plasma) volumes ACN, pellet and blood samples were extracted by addition of ACN followed by sonication for 5 min. Organ samples were digested with 0.5 µg/mg Proteinase K (Genaxxon) for 1 h at 50°C before being homogenized using a Fastprep FP-24 5G instrument (MP-Biomedicals). Homogenates were diluted with 6 volumes ACN and homogenized again. All extracts were cleared by centrifugation at ~20.000xg for 10 min at 4°C.
Quantification of analytes was performed on an Agilent 1260/1290 Infinity system fitted with an Agilent C18 Poroshell 120 column (4.6 x 50 mm, 2.7 µm) coupled to a triple quadrupole Sciex API 4000 MS/MS detector. The mobile phase was composed of water containing 0.1% formic acid (eluent A) and acetonitrile containing 0.1% formic acid (eluent B). Gradient used was: 5% B for 0.5 min, to 100% B in 4.5 min, 100% B for 2 min, to 5% B in 0.5 min, 5% for 2.5 min. MS detection parameters are listed in SI Table S1 .
(§1) Formulation. Test compounds were prepared for application in either 1% Tween 80, 9% PEG400 in ultrapure water (Biowest) (i.v., i.p., p.o. application) or 5 mM citric acid in 0.9% saline (Braun) (subcutaneous application). If compounds were administered subcutaneously, injections were carried out into the neck crease.
(§2) Collection of Samples. Mice were bled from the tail vein at various timepoints. Heparin (Sigma) or K2-EDTA (Sigma) was added to blood samples to a final […] concentration of 10-15 Unit or 5 mM. Plasma was generated by centrifugation at 6800xg for 8 min at 4°C and stored at -80°C until analyzed by ELISA or CBA. Animals were sacrificed after the indicated time points by CO2 inhalation. Heart blood and organs for compound quantification by HPLC-MS/MS were collected post mortem and stored at –20°C until extracted as described above.
(§3) (A) Organs were sampled 8 h after treatment and compound concentration was determined via HPLC-MS/MS. Data are presented as mean ± SD. (B) Cytokine levels in tail plasma over time were determined via cytometric bead array. At each sampling timepoint the plasma of mice in one treatment group was pooled.

[2] = test system: TNFα and IFNα in peripheral plasma; assay: Cytokine profile in peripheral plasma after equimolar s.c. doses (Figure 4B, Table 2 top); format: in vivo, C57BL/6 mice; settings: for IFNα AUC / TNFα AUC: 8 h period, equimolar doses (top section), pooled plasma of 3 animals; for IFNα plasma levels over the study period: in words
Description: Cytokine concentrations in samples were quantified either by ELISA (hTNFα, R&D Systems; hIFNα, Mabtech) or cytometric bead arrays (CBA, LegendPlex mouse anti-virus response panel, BioLegend) according to the manufacturer’s instructions. CBAs were acquired on a ZE5 Cell Analyzer (Bio-Rad) and analyzed using the LegendPlex Software Suite (Qognit/BioLegend). Absorbance of ELISA-samples was quantified using a Versamax microplate reader (Molecular Devices).
as §1, §2, §3

[3] = 95% CI, HEK-blue human TLR7, 24 h, read-out: TLR7 EC50
[4] = Figure S3, axis c/[µM], pooled from 3 experiments, read-out: compound-specific EC50 in dose response plot, HEK Blue hTLR7
[5] = kidney, read-out: concentration in kidney
[6] = liver, read-out: concentration in liver

| Compound | Average maximal activity in HEK-Blue hTLR7 relative to RSQ (human TLR7) | EC50 (human TLR7; [3]) | EC50 (human TLR7; [4]) | TLR7 activity rel. to assay max (human TLR7) | concentration at 8 h [1, 5] | concentration at 8 h [1, 6] | concentration at 1 h [1] | IFNα AUC ([2]; 3 µmol/kg s.c.) | TNFα AUC ([2]; 3 µmol/kg s.c.) | IFNα AUC ([2]; 6 µmol/kg s.c.) | TNFα AUC ([2]; 6 µmol/kg s.c.) | IFNα AUC ([2]; 12 µmol/kg s.c.) | TNFα AUC ([2]; 12 µmol/kg s.c.) | time of TNFα plasma peak post treatment ([2]; 3, 6, 12 µmol/kg s.c.) | IFNα plasma levels over the study period ([2]; 3, 6, 12 µmol/kg s.c.) | also measured |
| --- | --- | --- | --- | --- | --- | --- | --- | --- | --- | --- | --- | --- | --- | --- | --- | --- |
| CCCCc1nc2c(N)nc3ccccc3c2n1CCC1CCN(C(=O)CN(C)CC(=O)N(C)C2CC(C)OC(OC3C(C)C(OC4CC(C)(OC)C(O)C(C)O4)C(C)C(=O)OC(CC)C(C)(O)C(O)C(C)N(C)CC(C)CC3(C)O)C2O)CC1 (stereo not shown) [A1-mac] | 41% | 0.4 to 0.74 µM | 0.554 µM | 41% ± 8% | 5480 nM | 5100 nM | 696 nM | 420000 pg·min/mL | 6900 pg·min/mL | 920000 pg·min/mL | 24000 pg·min/mL | 3.1e+06 pg·min/mL | 76000 pg·min/mL | 90 min | stayed elevated over the 8 h period |  |
| CCCCc1nc2c(N)nc3ccccc3c2n1CCC1CCNCC1 [A1] | 58% | 0.096 to 0.22 µM | 0.146 µM | 58% ± 16% | 636 nM | 173 nM | 1560 nM | 660000 pg·min/mL | 6500 pg·min/mL | 1.3e+06 pg·min/mL | 17000 pg·min/mL | 2.5e+06 pg·min/mL | 35000 pg·min/mL | 120 min | stayed elevated over the 8 h period | concentration at 8 h ([1]; lung, read-out: concentration in lung): 868 nM |
| CCCCc1nc2c(N)nc3ccccc3c2n1CC1CCN(C(=O)CN(C)CC(=O)N(C)[C@H]2C[C@@H](C)O[C@@H](O[C@@H]3[C@@H](C)[C@H](O[C@H]4C[C@@](C)(OC)[C@@H](O)[C@H](C)O4)[C@@H](C)C(=O)O[C@H](CC)[C@@](C)(O)[C@H](O)[C@@H](C)N(C)C[C@H](C)C[C@@]3(C)O)[C@@H]2O)CC1 [A2-mac] | 63% | 1.5 to 2 µM | 1.76 µM | 63% ± 9% |  |  |  |  |  |  |  |  |  |  |  |  |
| CCOCc1nc2c(N)nc3ccccc3c2n1CC(C)(C)O [RSQ, Resiquimod, reference compound] |  |  |  | 95% ± 5% |  |  | 175 nM | 2.2e+06 pg·min/mL | 330000 pg·min/mL | 780000 pg·min/mL | 280000 pg·min/mL | 800000 pg·min/mL | 260000 pg·min/mL | 90 min |  | TNFα plasma AUC, times larger than the area for any A1 or A1-mac treated group ([2]; 3 µmol/kg RSQ s.c.): about 4 times; peak TNFα concentrations, times higher than in A1 or A1-mac groups ([2]; 3, 6, 12 µmol/kg s.c.): over 10 times; time at which TNFα and IFNα plasma levels fall close to baseline ([2]; 3, 6, 12 µmol/kg s.c.): 240 min; time of IFNα plasma peak post treatment ([2]; 3, 6, 12 µmol/kg s.c.): 90 min; time of maximal IFNα plasma levels post application ([2]; abstract, in vivo murine): 1 h |
